Test results published in article PMC12177125, “Anticancer, antimicrobial and molecular docking analysis of newly synthesized iodoquinazoline derivatives” (AMB Express, 2025).
≈ marks a conversion by molar mass, not a printed value. Where “and” joins values, the source holds several entries; their conditions need not be identical. Identical values can stand only once. Entries after “also recorded” stand apart in the source; their conditions may differ. Like-named read-outs stand apart in the source and are kept apart here.

Legend:
[1] = tested on: HeLa (human cervical cancer); experiment: MTT cytotoxicity assay, HeLa; type: cell-based; settings: 96 h continuous exposure, read-out: In vitro antitumor activities (IC50) HeLa (Cervical)
Source text: (§1) Four immortalized human cancer cell lines served as a panel for testing the compounds' cytotoxicity. The STAT3-null A4 cell line (with homozygously deleted STAT3) is a sub-line of the DLD1 colorectal carcinoma cell line and was a gift from Professor David Thurston, Emeritus Professor of Drug Discovery, King’s College London. The American Type Culture Collection and LGC provided the cell lines for HeLa (human cervical cancer), MIA-PaCa-2 (human pancreatic adenocarcinoma), MDA MB231 (triple negative human breast cancer), and NCI H1975 (human non-small cell lung cancer). Every cell line was kept in monolayer culture in 75 cm^2 flasks (TPP, Switzerland) at 37 °C in a humidified environment containing 5% CO2. The HeLa line was kept in Dulbecco's Modified Eagles Media (DMEM; Invitrogen), which was enhanced with L-glutamine (2 mM; Invitrogen), non-essential amino acids (1 x; Invitrogen), 10% v/v fetal bovine serum, and Penicillin–Streptomycin (1% v/v; Invitrogen).
(§2) Dulbecco's MEM was utilized for MIA PaCa2, and it was enhanced with fetal calf serum (10%, Biosera UK) and L-glutamine (2 mM; Invitrogen). The following materials were employed for sub-culturing: L-glutamine (2 mM; Invitrogen), fetal bovine serum (10%, Biosera UK), high glucose DMEM (4.5 g/l; Invitrogen), Penicillin–Streptomycin (1% v/v, Invitrogen), and non-essential amino acids (1x; Invitrogen). Penicillin–Streptomycin (1% v/v, Invitrogen) and fetal bovine serum (10% v/v; Invitrogen) were added to Roswell Park Memorial Institute Medium 1640 (RPMI 1640, Invitrogen) to sustain the NCI H1975 cell lines. Cells were passaged by rinsing them in PBS (GIBCO 14040, Invitrogen, UK), culturing them with trypsin (GIBCO 25300, Invitrogen, UK), and then reseeding them into new media. Cells were counted for seeding on a non-adherent suspension of cells that were rinsed in PBS, trypsinized, centrifuged at 8 °C for 5 min at 8000 rpm, and then re-suspended in new media using a Neubauer hemocytometer (Assistant, Germany) by microscopy (Nikon, USA).
(§3) Using the proper medium, the cells were cultured under standard cell culture conditions at 37 °C in a humidified atmosphere with 5% CO2. Depending on the cell line, 5,000–20,000 cells were added per well after the cell count was adjusted to 10^5 cells/mL. After a 24-h incubation period, 1 μL of the suitable inhibitor doses were applied in triplicate to the wells (Freimoser et al. [1999]). The MTT colorimetric test (3-(4,5-Dimethylthiazol-2-yl)-2,5-diphenyltetrazolium bromide) (Lancaster Synthesis Ltd, UK) was used to assess the cytotoxicity of each chemical after 96 h of continuous exposure (Freimoser et al. [1999]). Using an Envision Plate Reader from PerkinElmer, USA, spectrophotometry was used to measure absorbance at λ = 570 nm. Using the Prism Graphpad Prism® program, a dose–response analysis was used to get the IC50 values. MDA MB231; HeLa; MIA Cell lysis buffer was added to PaCa2 cells after they had been exposed to different doses of chemical 3e. The cells were then collected. Following the electrophoresis of total cell lysates on precast TGX gels, β-actin and CAXII antibodies were immunoblotted (Ghomashi et al. [2023]). Doxorubicin was used as a positive control (Ghomashi et al. [2023]).

[2] = tested on: four tested tumor cell lines; experiment: MTT cytotoxicity assay, panel of the four tumor cell lines; type: cell-based, human; settings: for IC50: Homo sapiens, range across HeLa, MDA MB231, MIA PaCa2, NCI H1975, read-out: IC50 / concentration stopping growth, range over the four tumor cell lines
Source text: as §1, §2
Using the proper medium, the cells were cultured under standard cell culture conditions at 37 °C in a humidified atmosphere with 5% CO2. Depending on the cell line, 5,000–20,000 cells were added per well after the cell count was adjusted to 10^5 cells/mL. After a 24-h incubation period, 1 μL of the suitable inhibitor doses were applied in triplicate to the wells (Freimoser et al. [1999]). The MTT colorimetric test (3-(4,5-Dimethylthiazol-2-yl)-2,5-diphenyltetrazolium bromide) (Lancaster Synthesis Ltd, UK) was used to assess the cytotoxicity of each chemical after 96 h of continuous exposure (Freimoser et al. [1999]). Using an Envision Plate Reader from PerkinElmer, USA, spectrophotometry was used to measure absorbance at λ = 570 nm. […]

[3] = tested on: S. aureus (SA) ATCC 25913; experiment: Broth microdilution MIC, S. aureus; type: cell-based; settings: Staphylococcus aureus, ATCC25913, CLSI
[4] = tested on: C. albicans (CA) ATCC 14053; experiment: Agar well diffusion, C. albicans; type: cell-based, Candida albicans; settings: average of triplicate
Experimental: (§4) The five newly synthesized compounds were first qualitatively evaluated for antibacterial and antifungal activities using Muller-Hinton agar medium (MHA) through the agar well diffusion technique as previously described (Balouiri et al. [2016]). The bacterial test was performed against the following standard strains: S. aureus (SA) ATCC 25913, E. coli (EC) ATCC 25922, P. aeruginosa (PA) ATCC 27853, K. pneumoniae (KP) ATCC 49619. The antifungal activity was evaluated against C. albicans (CA) ATCC 14053 (CLSI [2021]). A bacterial culture and preparation of wells on a seeded MHA plate was performed as previously described (Isleem et al. [2025]). The experiment was done in triplicate according to CLSI guidelines (CLSI [2021]). Secondly, the compounds that gave positive inhibition zones were selected for MIC determination using broth microdilution assay according to CLSI guidelines (CLSI [2021]). […]

[5] = tested on: C. albicans (CA) ATCC 14053; experiment: Broth microdilution MIC, C. albicans; type: cell-based; settings: Candida albicans, ATCC14053, CLSI
Experimental: as §4

[6] = tested on: P. aeruginosa (PA) ATCC 27853; experiment: Agar well diffusion, P. aeruginosa; type: cell-based, Pseudomonas aeruginosa; settings: average of triplicate
Experimental: as §4

[7] = tested on: MDA MB231 (triple negative human breast cancer); experiment: MTT cytotoxicity assay, MDA MB231; type: cell-based; settings: MDA-MB-231, 96 h continuous exposure, read-out: In vitro antitumor activities (IC50) MDA MB231 (Breast)
Source text: as §1, §2, §3

[8] = tested on: MIA-PaCa-2 (human pancreatic adenocarcinoma); experiment: MTT cytotoxicity assay, MIA PaCa2; type: cell-based; settings: 96 h continuous exposure, read-out: In vitro antitumor activities (IC50) MIA PaCa2 (Pancreatic)
Source text: as §1, §2, §3

[9] = tested on: STAT3-null A4 cell line (sub-line of DLD1 colorectal carcinoma); experiment: MTT cytotoxicity assay, A4 control cell line; type: cell-based; settings: Homo sapiens, DLD-1, 96 h continuous exposure, read-out: In vitro antitumor activities (IC50) A4 Cell line (Control cell line)
Source text: as §1, §2, §3

[10] = tested on: NCI H1975 (human non-small cell lung cancer); experiment: MTT cytotoxicity assay, NCI H1975; type: cell-based; settings: 96 h continuous exposure, read-out: In vitro antitumor activities (IC50) NCI H1975 (non-small cell Lung)
Source text: as §1, §2, §3

[11] = molecular target: T1, carbonic anhydrase XII (CAXII) (Bos taurus, UniProt P00921); experiment: Carbonic anhydrase (CAXII) inhibition, 4-nitrophenyl acetate, 96-well plate; type: biochemical, bovine
T1 construct: purified bovine erythrocyte CA-II; from tissue; host or cells: bovine erythrocytes

E. coli (EC) ATCC 25922 [12] = experiment: Agar well diffusion, E. coli; type: cell-based, Escherichia coli; settings: average of triplicate
Experimental: as §4

E. coli (EC) ATCC 25922 [13] = experiment: Broth microdilution MIC, E. coli; type: cell-based; settings: Escherichia coli, ATCC25922, CLSI
[14] = tested on: P. aeruginosa (PA) ATCC 27853; experiment: Broth microdilution MIC, P. aeruginosa; type: cell-based; settings: Pseudomonas aeruginosa, ATCC27853, CLSI
[15] = tested on: S. aureus (SA) ATCC 25913; experiment: Agar well diffusion, S. aureus; type: cell-based, Staphylococcus aureus; settings: average of triplicate
Experimental: as §4

[16] = read-out: CAXII inhibitory activity (IC50)

T1 sequence (P00921 2-260): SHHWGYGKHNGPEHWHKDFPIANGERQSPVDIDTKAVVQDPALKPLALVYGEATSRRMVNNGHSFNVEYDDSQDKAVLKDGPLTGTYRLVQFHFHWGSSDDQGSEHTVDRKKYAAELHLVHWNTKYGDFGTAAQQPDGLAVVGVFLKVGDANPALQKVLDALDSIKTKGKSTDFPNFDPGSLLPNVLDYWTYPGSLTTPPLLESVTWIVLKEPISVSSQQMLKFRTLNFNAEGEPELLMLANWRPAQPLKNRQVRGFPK

Structure (SMILES) | IC50 [1] | IC50 [2] | MIC [3] | Inhibition Zone CA ATCC 14053 [4] | MIC [5] | Inhibition Zone PA ATCC 27853 [6] | IC50 [7] | IC50 [8] | IC50 [9] | IC50 [10] | IC50 [11, 16] | Inhibition Zone EC ATCC 25922 (E. coli (EC) ATCC 25922 [12]) | MIC (E. coli (EC) ATCC 25922 [13]) | MIC [14] | Inhibition Zone SA ATCC 25913 [15] | IC50 ([11]; text of b65, unit printed nM, read-out: CAXII inhibition (converted)) | Anticancer activity against the four tested tumor cell lines (in words) [2]
O=S(=O)(Nc1nccs1)c1ccc(Nc2nc(-c3ccccc3)nc3ccc(I)cc23)cc1 [Compound 3c, 6-Iodo-2-phenyl-4-(4-(thiazol-2-yl)aminosulphonylphenyl-amino) quinazoline] | 4 ± 0.66 µM | 4 to 8 µM | 1 µg/mL (≈ 1.71 µM) | 16 mm | 4 µg/mL (≈ 6.83 µM) | 12 mm | 6.4 ± 0.9 µM | 5.5 ± 0.8 µM | > 50 µM | 8 ± 0.5 µM | 3690 nM | 15 mm | 4 µg/mL (≈ 6.83 µM) | 16 µg/mL (≈ 27.3 µM) | 22 mm |  | 
O=C(O)c1cn(C2CC2)c2cc(N3CCNCC3)c(F)cc2c1=O [Ciprofloxacin, reference compound] |  |  |  |  |  | 25 mm |  |  |  |  |  | 25 mm |  |  | 21 mm |  | 
COc1ccc(-c2nc(Nc3ccc(S(=O)(=O)Nc4nccs4)cc3)c3cc(I)ccc3n2)cc1 [Compound 3d, 6-Iodo-2-(4-methoxyphenyl)-4-(4-(thiazol-2-yl)aminosulphonylphenyl-amino)-quinazoline] | 8.2 ± 2.1 µM |  | 4 µg/mL (≈ 6.5 µM) | 12 mm | 8 µg/mL (≈ 13 µM) | 12 mm | 6.4 ± 1.76 µM | 6.1 ± 1.3 µM | > 50 µM | 12.3 ± 0.9 µM | 8190 nM | 10 mm | 32 µg/mL (≈ 52 µM) | 32 µg/mL (≈ 52 µM) | 16 mm | 8910 nM | 
COc1ccc(-c2nc(Nc3ccc(S(=O)(=O)Nc4nccs4)cc3)c3cc(I)ccc3n2)cc1OC [Compound 3e, 6-Iodo-2-(3,4-dimethoxyphenyl)-4-(4-(thiazol-2-yl)aminosulphonylphenyl-amino)-quinazoline] | > 50 µM |  | 16 µg/mL (≈ 24.8 µM) | 12 mm | 16 µg/mL (≈ 24.8 µM) | 10 mm | > 50 µM | > 50 µM | > 50 µM | > 50 µM | > 50000 nM | 10 mm | 32 µg/mL (≈ 49.6 µM) | 32 µg/mL (≈ 49.6 µM) | 14 mm |  | devoid of anticancer activities; also recorded: weak activity
COc1ccc(-c2nc(Nc3ccc(S(N)(=O)=O)cc3)c3cc(I)ccc3n2)cc1 [Compound 3b, 6-Iodo-4-(4-aminosulphonylphenyl-amino)-2-(4-methoxyphenyl)-quinazoline] | 6.1 ± 0.12 µM | 6 to 9 µM | 2 µg/mL (≈ 3.76 µM) | 10 mm | 16 µg/mL (≈ 30.1 µM) | 10 mm | 7.3 ± 0.8 µM | 7.3 ± 0.9 µM | > 50 µM | 9.1 ± 1.8 µM | 3690 nM and 3750 nM | 12 mm | 8 µg/mL (≈ 15 µM) | 32 µg/mL (≈ 60.1 µM) | 18 mm |  | 
OC(Cn1cncn1)(Cn1cncn1)c1ccc(F)cc1F [Fluconazole, reference compound] |  |  |  | 20 mm | 1 µg/mL (≈ 3.27 µM) |  |  |  |  |  |  |  |  |  |  |  | 
COc1cccc2c1C(=O)c1c(O)c3c(c(O)c1C2=O)C[C@@](O)(C(=O)CO)C[C@@H]3O[C@H]1C[C@H](N)[C@H](O)[C@H](C)O1 [Doxorubicin, reference compound] | 3.25 ± 0.5 µM | 2.3 to 3.25 µM |  |  |  |  | 2.7 ± 0.6 µM | 2.3 ± 0.6 µM |  | 2.8 ± 0.5 µM |  |  |  |  |  |  | 
NS(=O)(=O)c1ccc(Nc2ncnc3ccc(I)cc23)cc1 [Compound 3a, 6-Iodo-4-(4-aminosulphonylphenyl-amino) quinazoline] | 10.5 ± 1.6 µM |  | 8 µg/mL (≈ 18.8 µM) | 10 mm | 16 µg/mL (≈ 37.5 µM) | 0 mm | 12 ± 1.25 µM | 14 ± 1.6 µM | > 50 µM | 13.2 ± 1.5 µM | 9510 nM | 10 mm | 8 µg/mL (≈ 18.8 µM) |  | 14 mm |  | 
